Reference: patent US20250129045A1, “SMALL MOLECULE PIM AND MTOR KINASE INHIBITOR AND METHODS OF USE THEREOF” (Arizona Board of Regents on Behalf of the University of …, priority 2022, published 2025)
“Also recorded” adds a separate entry of the source.

Columns and labels:
[1] = molecular target: Pim1 and EDC3 binding (Homo sapiens, UniProt P11309); assay: In vitro co-precipitation / co-immunoprecipitation of EDC3 with Pim1; settings: VBT-5445 at concentrations higher than 1 μM, listed as VBT 1-34
Procedure: FIGS. 7A-7I show inhibition of VBT5445 (VBT) on Pim1 and EDC3 binding and phosphorylation. FIG. 7A: In vitro co-precipitation (Co-PPT) assay was performed with recombinant EDC3 and biotinylated Pim1 using Streptavidin beads with increasing concentrations of the Pim inhibitor VBT5445 (VBT). FIG. 7B: Kinase assays were performed with recombinant EDC3 and Pim1 with increasing concentrations of VBT. FIG. 7C: Cell lysates from PC3-LN4 cells cultured with DMSO, 10 μM VBT, 3 μM AZD5363 (AKTi) and the combination for 6 hrs were subjected to western blotting (WB). […] WBs were performed using the indicated antibodies. FIG. 7E: PC3-LN4 cells were seeded into 48 well plate and incubated with either DMSO, VBT, AZD5363 or the combination, for 4.5 days. A real-time imaging system (IncuCyte™) was used to measure cell proliferation using a non-label cell monolayer confluence approach. FIG. 7F-7H: GFP image in PC3 LN4 GFP EDC3 expressing cells treated with PIMi: VBT (5 μM) and VBT (5 μM)+AZD5363 (3 μM) for 6 hrs.

[2] = system: mTORC; assay: Phosphorylation of mTORC substrates in PANC1 cells (Western blot); format: cell-based; settings: overnight incubation
Procedure: Immunoblotting: Western blots were performed as described previously. Briefly, protein lysates (30 μg) were subjected to SDS-PAGE and transferred to nitrocellulose membranes. After blocking with 5% milk in TBST buffer for 30 min at room temperature, the membranes were incubated overnight at 4° C. with the Indicated primary antibody in 3% BSA in TBST. Specific proteins were detected with the corresponding HRP conjugated secondary antibody using enhanced chemiluminescence (GE Lifesciences, Piscataway, NJ).
Because of ease of growth, PANC1 pancreatic cancer cells were used to test the activity of derivatives of VBT-5445 (FIG. 14). […] Using a doxycycline inducible Pim kinase vector in these tumor cells, this inhibition of phosphorylation was proportional to the level of Pim in these cells (FIG. 9). […] Inhibition of mTORC1 is known to stimulate the feedback activation of mTORC2 leading to AKT phosphorylation. […] The effect of these compounds on mTORC1 and 2 was still evident in PC3-LN4 cells that contained a knockout (KO) using CRISPR/CAS9 of either TSC2 or DEPDC5 (FIG. 12, lanes 4-9). TSC2 KO activated the Rheb GTPase while DEPDC5 KO activated the RAG GTPase both of which stimulate mTORC1 activity. Thus, GRG compounds were capable of inhibiting mTORC1 activity even when this kinase was highly activated.

[3] = system: PC3-LN4 and PANC1 cells; assay: RPPA of PC3-LN4 and PANC1 cells (FIG. 24); format: cell-based; settings: 5 μM, 24 h
Procedure: Tumor cells were treated with or without GRG-1-34 (5 μM) for 24 h and lysates were subjected to RPPA. The results were clustered in the form of heat map created using the Heatmapper web tool. The analysis was completed with the clustering method of Complete Linkage and the distance measurement method of Kendall's Tau.
To further examine how these compounds function to inhibit tumor growth, changes in both a wide variety of phosphoprotein and protein levels using reverse-phase protein arrays (RPPA) were evaluated. PANC1 and PC3-LN4 cells were treated with GRG1-34 at 5 μM for 24 h. […] The values in the RPPA obtained at these two time points were divided by the value at time zero to allow an evaluation of the changes caused by each drug treatment.

Pim1 and EDC3 binding, sequence (P11309 whole entry): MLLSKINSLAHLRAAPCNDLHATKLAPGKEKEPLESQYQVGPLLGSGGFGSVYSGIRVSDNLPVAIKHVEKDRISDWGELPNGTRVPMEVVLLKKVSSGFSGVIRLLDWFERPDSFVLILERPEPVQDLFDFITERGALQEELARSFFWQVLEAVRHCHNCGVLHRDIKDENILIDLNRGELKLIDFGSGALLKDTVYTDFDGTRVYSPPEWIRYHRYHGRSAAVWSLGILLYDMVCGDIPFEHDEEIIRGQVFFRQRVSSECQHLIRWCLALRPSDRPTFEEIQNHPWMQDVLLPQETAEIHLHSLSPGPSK

SMILES: O=c1c(CNCc2cc(Br)ccn2)cc2ccc(Cl)cc2n1CCOc1ccccc1 [GRG-1-34, 3-((((4-bromopyridin-2-yl)methyl)amino)methyl)-7-chloro-1-(2-phenoxyethyl) quinolin-2 (1H)-one]
- co-immunoprecipitation of EDC3 with Pim [1]: block the co-immunoprecipitation of EDC3 with Pim; also recorded: blocks co-immunoprecipitation of EDC3 with Pim
- block of phosphorylation of mTORC substrates (AKT, 4E-BP1, S6) ([2]; FIG. 19): block the phosphorylation of mTORC substrates
- block of phosphorylation of mTORC substrates (AKT, 4E-BP1, S6) ([2]; FIG. 19, listed as VBT 1-34): inhibit phosphorylation of mTORC substrates
- mTORC signaling pathway on RPPA (mTOR S2448, S6 S235/235, S6K T389, 4E-BP1 S65) [3]: inhibition
- phosphorylation of AMPK T172 on RPPA [3]: increased
- phosphorylation of acetyl COA carboxylase S79 on RPPA [3]: increased
